# Like-named read-outs stand apart in the source and are kept apart here.
# How the values were obtained:
# [1] = test system: lipoprotein lipase (LPL) gene; test: LPL mRNA elevating action (RT-PCR quantification of LPL mRNA in C2Cl2 cells); assay type: cell-based, mouse; details: compound 10 μM, ratio relative to the amount of LPL mRNA in cells with DMSO only; for fold induction at 10 µM: Mus musculus, 24 h, read-out: Rate of increase in LPL mRNA
# Procedure: LPL mRNA Elevating Action
# C2Cl2 cells (cell strain derived from striated muscle of mouse) were seeded in 96-well plates using a DMEM medium (Gibco) (containing 2 mM L-glutamine and 10% fetal bovine serum). After the cells were grown, the medium was removed. Subsequently, media obtained by adding dimethyl sulfoxide (DMSO) solutions of the compounds to the same medium as described above to a concentration of 10 μM were individually added to the cells and allowed to stand for 24 hours. The compound-containing media were removed, and the plates were washed with phosphate buffered saline. Thereafter, the remaining cells were lysed and subjected to a reverse transcription polymerase chain reaction (RT-PCR reaction) to obtain cDNA. Primers specific to lipoprotein lipase (LPL) gene, a necessary enzyme, etc., were added to the obtained cDNA. The mixture was set in 7500 Fast Real Time PCR System produced by Applied Biosystem to perform a PCR reaction (20 cycles) and the amount of LPL mRNA amplified was quantified. The LPL mRNA elevating action of each compound in the test cells was indicated as the ratio relative to the amount of LPL mRNA in cells allowed to stand in a medium to which only DMSO was added, with the amount being defined as 1.
# As Comparative Example 1, a test was performed in the same manner as above, using a compound disclosed as the compound of Example 57 in WO2010/090200.
# [2] = Solubility in gastric juice or intestinal juice model fluid (precipitation method using DMSO); assay type: physicochemical; details: room temperature; for Solubility (μg/mL) 1st fluid / Solubility (μg/mL) 2nd fluid: 24 hours
# Summary of the method: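 Dissolved amount (μg/mL) quantified by UV of filtrate versus pre-made calibration curves. Precipitation approach: DMSO solutions spiked into pH 1.2 (JP 1st fluid) or pH 6.8 (JP 2nd fluid) medium, shaken at room temperature for 24 h before insolubles were filtered off.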
# [3] = pH 1.2, simulated gastric fluid, kinetic from dmso stock, 1st fluid for Disintegration Test of Japanese Pharmacopoeia (pH: 1.2), read-out: Solubility (μg/mL) 1st fluid
# [4] = pH 6.8, kinetic from dmso stock, 2nd fluid for Disintegration Test of Japanese Pharmacopoeia (pH: 6.8), read-out: Solubility (μg/mL) 2nd fluid
# [5] = 1st fluid for Disintegration Test of Japanese Pharmacopoeia (pH: 1.2)
# [6] = 2nd fluid for Disintegration Test of Japanese Pharmacopoeia (pH: 6.8)
Structure (SMILES),"solubility at 24 h [2, 3] [µg/mL]","solubility at 24 h [2, 4] [µg/mL]","Solubility (μg/mL) 1st fluid [2, 5] [µg/mL]","Solubility (μg/mL) 2nd fluid [2, 6] [µg/mL]",melting point,fold induction at 10 µM [1],Rate of increase in LPL mRNA ([1]; 24 hours)
COc1cc(OCc2ccc(C(F)(F)F)nc2)ccc1-c1cnc(C2CCC(F)(F)C2)[nH]1 (stereo not drawn) [Example 3],87.5,1,,,,2.48,
COc1cc(OCc2ccc(C(F)(F)F)nc2)ccc1-c1nc(C2CCCCC2)[nH]c1C [Example 48],> 89,80.8,,,,3.02,
COc1cc(-c2c[nH]c(C3CCCCCC3)n2)ccc1OCc1ccc(C(F)(F)F)cn1 [Example 72],> 116,1.8,,,,2.75,
COc1cc(OC(C)c2ncc(Br)cc2F)ccc1-c1cnc(-c2ccc(F)nc2)[nH]1 (stereo not drawn) [Example 128],94.9,4,,,,2.28,
COc1cc(OCc2ncc(C(F)(F)F)cc2F)ccc1-c1cnc(-c2ccc(C)nc2)[nH]1 [Example 402],,,,,,2.37,
COc1cc(-c2[nH]c(-c3ccc(C)nc3)nc2Cl)ccc1OCc1ncc(C(F)(F)F)cc1F [Example 405],,,,,,2.78,
COc1cc(OCc2ccc(C(F)(F)F)nc2)c(C)cc1-c1cnc(C2CCC(F)(F)CC2)[nH]1 [Example 12],15.6,< 1.7,,,,2.23,
COc1cc(-c2cnc(-c3ccc(C)nc3)[nH]2)ccc1OCc1ncc(C(F)(F)F)cc1F [Example 403],,,,,,2.09,
"COc1cc(OCc2ncc(Br)cc2F)ccc1-c1cnc(-c2ccc(F)nc2)[nH]1 [Example 111, 5-bromo-3-fluoro-2-[[4-(2-(6-fluoropyridin-3-yl)-1H-imidazol-5-yl)-3-methoxyphenoxy]methyl]pyridine]",9.4,1.2,,,,2.46,
COc1cc(OCc2ncc(C(F)(F)F)cc2F)ccc1-c1[nH]c(-c2ccc(C)nc2)nc1Cl [Example 404],,,,,,3.26,
COc1cc(OCc2ncc(Cl)cc2C(F)(F)F)ccc1-c1cnc(-c2ccc(F)nc2)[nH]1 [Example 138],,,,,,2.97,
COc1cc(OCc2ccc(Br)cc2F)ccc1-c1c[nH]c(-c2ccccn2)n1 [Example 91],42.8,0.6,,,143 to 146 °C,,
COc1cc(OCc2ncc(C(F)(F)F)cc2F)ccc1-c1[nH]c(C2CC(F)(F)C2)nc1F [Example 401],,,,,,2.9,
COc1cc(-c2c[nH]c(C3CCC(F)(F)CC3)n2)ccc1OCc1ccc(C(F)(F)F)cn1 [Example 62],> 101,1.3,,,> 250 °C,,
COc1cc(-c2c[nH]c(-c3ccccn3)n2)ccc1OCc1ccc(C(F)(F)F)cn1 [Example 87],39.4,0.7,,,217 to 220 °C,,
COc1cc(OCc2ccc(C(F)(F)F)cn2)ccc1-c1c[nH]c(C2CCCCCC2)n1 [Example 75],83.1,1,,,202 to 204 °C (dec.),,
COc1cc(OCc2cccc(C#N)n2)ccc1-c1c[nH]c(-c2ccc(Cl)nc2)n1 [Example 60],8.8,1.1,,,235 to 239 °C (dec.),,
COc1cc(-c2nc(-c3ccc(Cl)cn3)[nH]c2C)ccc1OCc1ccc(C(F)(F)F)cn1 [Example 31],7.7,1.6,,,168 to 171 °C,,
COc1cc(OCc2ccc(C(F)(F)F)cc2)ccc1-c1cnc(-c2ccc(F)nc2)[nH]1 [Example 115],15.5,2,,,125 to 135 °C,,
COc1cc(-c2c[nH]c(-c3ccc(F)nc3)n2)ccc1OCc1ncccc1F [Example 119],44.7,5.2,,,68 to 79 °C,,
COc1cc(OCc2ccc(C(F)(F)F)cn2)ccc1-c1c[nH]c(C2CCC(F)(F)CC2)n1 [Example 61],> 101,1.6,,,232 to 237 °C,,

# Further lines, with some results ahead:
"solubility at 24 h [2, 3] [µg/mL]","solubility at 24 h [2, 4] [µg/mL]","Solubility (μg/mL) 1st fluid [2, 5] [µg/mL]","Solubility (μg/mL) 2nd fluid [2, 6] [µg/mL]",melting point,Structure (SMILES),fold induction at 10 µM [1],Rate of increase in LPL mRNA ([1]; 24 hours)
75.2,79.4,,,,COc1cc(-c2cnc(C3CC3)[nH]2)ccc1OCc1ncc(C(F)(F)F)cc1F [Example 376],1.18,
84,42.9,,,,COc1cc(OCc2ncc(C(F)(F)F)cc2F)ccc1-c1cnc(C2CCC2)[nH]1 [Example 371],3.57,
74.8,62.1,,,,COc1cc(-c2cnc(C(C)C)[nH]2)ccc1OCc1ncc(C(F)(F)F)cc1F [Example 382],1.41,
60.8,< 0.3,,,,COc1cc(-c2cnc(-c3ccc(F)nc3)[nH]2)ccc1OC(C)c1ncc(C(F)(F)F)cc1F (stereo not drawn) [Example 392],1.73,
79.2,24.7,,,,COc1cc(-c2cnc(C3CCCC3)[nH]2)ccc1OCc1ncc(C(F)(F)F)cc1F [Example 366],1.95,
37,2.9,,,,"COc1cc(OCc2ncc(C(F)(F)F)cc2F)ccc1-c1[nH]c(-c2ccc(F)nc2)nc1CO [Example 413, [5-(4-((3-fluoro-5-(trifluoromethyl)pyridin-2-yl)methoxy)-2-methoxyphenyl)-2-(6-fluoropyridin-3-yl)-1H-imidazol-4-yl]methanol]",2.06,
80.4,33.5,,,,COc1cc(-c2cnc(C3CCC3)[nH]2)ccc1OCc1ncc(C(F)(F)F)cc1F [Example 372],1.95,
96,1.8,,,,CCCCOC(C)n1cc(-c2ccc(OCc3ncc(C(F)(F)F)cc3F)cc2OC)nc1-c1ccc(F)nc1 (stereo not drawn) [Example 389],1.63,
> 62,59.7,,,,COc1cc(O)ccc1-c1cnc(C2CCC(F)(F)CC2)[nH]1 [Example 338],1.32,
1.1,7.1,,,,COc1cc(-c2cnc(CCC(F)(F)F)[nH]2)ccc1OCc1ncc(C(F)(F)F)cc1F [Example 391],1.58,
104,3.6,,,,COc1cc(OCc2ccc(C(F)(F)F)cn2)ccc1-c1nc(-c2ccc(Cl)nc2)n(CC2CC2)c1C [Example 156],3.27,
93.8,8.1,,,,COc1cc(OCc2ncc(C(F)(F)F)cc2F)ccc1-c1cnc(C2CCC(F)(F)C2)[nH]1 (stereo not drawn) [Example 340],2.26,
95.5,5,,,,CCc1nc(-c2ccc(F)nc2)[nH]c1-c1ccc(OCc2ncc(C(F)(F)F)cc2F)cc1OC [Example 362],2.89,
,,>109,<1.9,,COc1cc(-c2[nH]c(C3CCCC(F)(F)C3)nc2Br)ccc1OCc1ccc(C(F)(F)F)cn1 (stereo not drawn) [Example 171],,2.89
20.2,0.8,,,,COc1cc(-c2cnc(-c3ccc(F)nc3)[nH]2)ccc1OCc1ncc(C(F)(F)F)cc1F [Example 324],1.95,
24.7,0.4,,,134 to 136 °C,COc1cc(OCc2ccc(C(F)(F)F)nc2)ccc1-c1c(Br)nc(-c2ccc(F)nc2)n1C [Example 305],,
5,< 0.3,,,> 230 °C,"COc1cc(OCc2ncc(C(F)(F)F)cc2F)ccc1-c1cnc(-c2ccc(F)nc2)[nH]1 [Example 139, 3-fluoro-2-[[4-(2-(6-fluoropyridin-3-yl)-1H-imidazol-5-yl)-3-methoxyphenoxy]methyl]-5-(trifluoromethyl)pyridine]",,
> 92,1.4,,,163 to 165 °C,COc1cc(OCc2ccc(C(F)(F)F)nc2)ccc1-c1cn(C)c(-c2ccc(F)nc2)n1 [Example 163],,
22.6,0.6,,,175 to 178 °C,COc1cc(OCc2ccc(C(F)(F)F)nc2)c(C)cc1-c1[nH]c(C2CCC(F)(F)CC2)nc1Cl [Example 192],,
,,12,<0.4,165 to 168 °C,COc1cc(OC(C)c2ccc(C(F)(F)F)cn2)ccc1-c1[nH]c(-c2ccc(F)nc2)nc1Cl (stereo not drawn) [Example 240],,
